Measured values reported in patent EP3041353B1, “COMPOSITIONS COMPRISING BACTERIOSTATIC AGENTS AND BRILLIANT BLUE G” (priority 2013, dated 2015).

What was measured:
P2X7-Rezeptor = molecular target: T1, P2X7-Rezeptor (Rattus norvegicus, UniProt Q64663); details: Jiang et al. 2000; cited from earlier work
T1 sequence (Q64663 1-595): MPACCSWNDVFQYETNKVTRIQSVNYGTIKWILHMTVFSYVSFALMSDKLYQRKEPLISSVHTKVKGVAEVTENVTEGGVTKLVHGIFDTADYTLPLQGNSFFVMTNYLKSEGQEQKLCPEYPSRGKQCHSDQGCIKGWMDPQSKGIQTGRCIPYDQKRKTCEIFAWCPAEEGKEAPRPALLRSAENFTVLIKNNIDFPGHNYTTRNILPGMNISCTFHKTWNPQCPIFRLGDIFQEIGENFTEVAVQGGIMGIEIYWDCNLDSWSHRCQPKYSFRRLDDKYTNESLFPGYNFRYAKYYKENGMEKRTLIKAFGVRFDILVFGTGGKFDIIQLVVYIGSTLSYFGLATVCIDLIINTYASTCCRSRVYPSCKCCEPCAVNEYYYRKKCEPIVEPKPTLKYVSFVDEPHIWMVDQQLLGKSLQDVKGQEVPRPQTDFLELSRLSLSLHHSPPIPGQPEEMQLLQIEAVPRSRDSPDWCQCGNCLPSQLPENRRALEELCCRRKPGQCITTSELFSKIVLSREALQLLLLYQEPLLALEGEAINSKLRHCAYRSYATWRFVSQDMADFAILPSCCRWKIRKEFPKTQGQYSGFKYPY

Escherichia coli DH5α = experiment: Bacteriostatic effect of Octenidin with BBG: turbidity after 24 h incubation; assay type: cell-based; design: key: +: Bakterienwachstum nach 24 h Inkubation; -: kein Bakterienwachstum nach 24 h Inkubation
Experimental: (§1) Zur Untersuchung des Einflusses von BBG auf die bakteriostatische Wirkung wurden Bakterien 24 h mit erfindungsgemäßen Zusammensetzungen, Benzalkoniumchlorid (BAK) und Octenidin (Oct) als Bakteriostatikum enthielten, inkubiert. Wenn sich die Inkubationsmischung trübte, wurde das als Bakterienwachstum interpretiert. Zum Vergleich wurde Brillantblau R (BBR) anstelle von BBG eingesetzt. Die Ergebnisse sind in den Tabellen 1-4 wiedergegeben. Tabelle 1: Einfluss von BBG und BBR auf die bakteriostatische Wirkung von BAK gegenüber Escherichia coli (E. coli), + = Bakterienwachstum nach 24 h Inkubation, - = kein Bakterienwachstum nach 24 h Inkubation, R = Brillantblau R (BBR), G = Brillantblau G (BBG).
(§2) Gram-negative Bakterien (hier E. coli) sind widerstandsfähiger als Gram-positive Bakterien (hier Bacillus sp.) und wachsen konzentrationsabhängig. […] Tabelle 3: Einfluss von BBG auf die bakteriostatische Wirkung von Octenidin (Oct) gegenüber Gram-negativen Bakterien., + = Bakterienwachstum nach 24 h Inkubation, - = kein Bakterienwachstum nach 24 h Inkubation, BBG = Brillantblau G.

Vibrio sp. Gal12 = experiment: as above; assay type: cell-based; design: key: +: Bakterienwachstum nach 24 h Inkubation; -: kein Bakterienwachstum nach 24 h Inkubation
Experimental: as §1, §2

[1] = tested on: Pseudomonas putida DSM 291; experiment: as above; assay type: cell-based; design: key: +: Bakterienwachstum nach 24 h Inkubation; -: kein Bakterienwachstum nach 24 h Inkubation
Experimental: as §1, §2

For `CCOc1ccc(Nc2ccc(C(=C3C=CC(=[N+](CC)Cc4cccc(S(=O)(=O)[O-])c4)C=C3C)c3ccc(N(CC)Cc4cccc(S(=O)(=O)O)c4)cc3C)cc2)cc1` [BBG, Brillantblau G], the “Hemmung des P2X7-Rezeptors” value (P2X7-Rezeptor) is listed as “spezifisch nicht-kompetitiv hemmt”, the “Bakterienwachstum nach 24 h Inkubation” value (Escherichia coli DH5α; 0,007% BBG + Octenidin 0,01%) is listed as “-” and the “Bakterienwachstum nach 24 h Inkubation” value (Escherichia coli DH5α; 0,007% BBG + Octenidin 0,002%) is listed as “+”. For the same compound, the “Bakterienwachstum nach 24 h Inkubation” value (Escherichia coli DH5α; 0,007% BBG + Octenidin 0,003%) was “-”, the “Bakterienwachstum nach 24 h Inkubation” value (Escherichia coli DH5α; 0,007% BBG + Octenidin 0,005%) was “-” and the “Bakterienwachstum nach 24 h Inkubation” value (Escherichia coli DH5α; 0,007% BBG + Octenidin 0,007%) was “-”. The “Bakterienwachstum nach 24 h Inkubation” value (Escherichia coli DH5α; 0,007% BBG + Octenidin 0,009%) was “-”, the “Bakterienwachstum nach 24 h Inkubation” value (Escherichia coli DH5α; 0,007% BBG, Octenidin 0%) was “+” and the “Bakterienwachstum nach 24 h Inkubation” value (Escherichia coli DH5α; 0,015% BBG + Octenidin 0,01%) was “-”. For the same compound, the “Bakterienwachstum nach 24 h Inkubation” value (Escherichia coli DH5α; 0,015% BBG + Octenidin 0,002%) was “+”, the “Bakterienwachstum nach 24 h Inkubation” value (Escherichia coli DH5α; 0,015% BBG + Octenidin 0,003%) was “+” and the “Bakterienwachstum nach 24 h Inkubation” value (Escherichia coli DH5α; 0,015% BBG + Octenidin 0,005%) was “+”. For the same compound, the “Bakterienwachstum nach 24 h Inkubation” value (Escherichia coli DH5α; 0,015% BBG + Octenidin 0,007%) was “-”, the “Bakterienwachstum nach 24 h Inkubation” value (Escherichia coli DH5α; 0,015% BBG + Octenidin 0,009%) was “-” and the “Bakterienwachstum nach 24 h Inkubation” value (Escherichia coli DH5α; 0,015% BBG, Octenidin 0%) was “+”. For the same compound, the “Bakterienwachstum nach 24 h Inkubation” value (Escherichia coli DH5α; 0,030% BBG + Octenidin 0,01%) was “+”, the “Bakterienwachstum nach 24 h Inkubation” value (Escherichia coli DH5α; 0,030% BBG + Octenidin 0,002%) was “+” and the “Bakterienwachstum nach 24 h Inkubation” value (Escherichia coli DH5α; 0,030% BBG + Octenidin 0,003%) was “+”. For the same compound, the “Bakterienwachstum nach 24 h Inkubation” value (Escherichia coli DH5α; 0,030% BBG + Octenidin 0,005%) was “+”, the “Bakterienwachstum nach 24 h Inkubation” value (Escherichia coli DH5α; 0,030% BBG + Octenidin 0,007%) was “+” and the “Bakterienwachstum nach 24 h Inkubation” value (Escherichia coli DH5α; 0,030% BBG + Octenidin 0,009%) was “+”. The “Bakterienwachstum nach 24 h Inkubation” value (Escherichia coli DH5α; 0,030% BBG, Octenidin 0%) was “+”, the “Bakterienwachstum nach 24 h Inkubation” value (Vibrio sp. Gal12; 0,007% BBG + Octenidin 0,01%) was “-” and the “Bakterienwachstum nach 24 h Inkubation” value (Vibrio sp. Gal12; 0,007% BBG + Octenidin 0,002%) was “+”. The “Bakterienwachstum nach 24 h Inkubation” value (Vibrio sp. Gal12; 0,007% BBG + Octenidin 0,003%) was “-”, the “Bakterienwachstum nach 24 h Inkubation” value (Vibrio sp. Gal12; 0,007% BBG + Octenidin 0,005%) was “-” and the “Bakterienwachstum nach 24 h Inkubation” value (Vibrio sp. Gal12; 0,007% BBG + Octenidin 0,007%) was “-”. For the same compound, the “Bakterienwachstum nach 24 h Inkubation” value (Vibrio sp. Gal12; 0,007% BBG + Octenidin 0,009%) was “-”, the “Bakterienwachstum nach 24 h Inkubation” value (Vibrio sp. Gal12; 0,007% BBG, Octenidin 0%) was “+” and the “Bakterienwachstum nach 24 h Inkubation” value (Vibrio sp. Gal12; 0,015% BBG + Octenidin 0,01%) was “-”. For the same compound, the “Bakterienwachstum nach 24 h Inkubation” value (Vibrio sp. Gal12; 0,015% BBG + Octenidin 0,002%) was “+”, the “Bakterienwachstum nach 24 h Inkubation” value (Vibrio sp. Gal12; 0,015% BBG + Octenidin 0,003%) was “+” and the “Bakterienwachstum nach 24 h Inkubation” value (Vibrio sp. Gal12; 0,015% BBG + Octenidin 0,005%) was “+”. For the same compound, the “Bakterienwachstum nach 24 h Inkubation” value (Vibrio sp. Gal12; 0,015% BBG + Octenidin 0,007%) was “-”, the “Bakterienwachstum nach 24 h Inkubation” value (Vibrio sp. Gal12; 0,015% BBG + Octenidin 0,009%) was “-” and the “Bakterienwachstum nach 24 h Inkubation” value (Vibrio sp. Gal12; 0,015% BBG, Octenidin 0%) was “+”. The “Bakterienwachstum nach 24 h Inkubation” value (Vibrio sp. Gal12; 0,030% BBG + Octenidin 0,01%) was “+”, the “Bakterienwachstum nach 24 h Inkubation” value (Vibrio sp. Gal12; 0,030% BBG + Octenidin 0,002%) was “+” and the “Bakterienwachstum nach 24 h Inkubation” value (Vibrio sp. Gal12; 0,030% BBG + Octenidin 0,003%) was “+”. The “Bakterienwachstum nach 24 h Inkubation” value (Vibrio sp. Gal12; 0,030% BBG + Octenidin 0,005%) was “+”, the “Bakterienwachstum nach 24 h Inkubation” value (Vibrio sp. Gal12; 0,030% BBG + Octenidin 0,007%) was “+” and the “Bakterienwachstum nach 24 h Inkubation” value (Vibrio sp. Gal12; 0,030% BBG + Octenidin 0,009%) was “+”. For the same compound, the “Bakterienwachstum nach 24 h Inkubation” value (Vibrio sp. Gal12; 0,030% BBG, Octenidin 0%) was “+”, the “Bakterienwachstum nach 24 h Inkubation” value ([1]; 0,007% BBG + Octenidin 0,01%) was “-” and the “Bakterienwachstum nach 24 h Inkubation” value ([1]; 0,007% BBG + Octenidin 0,002%) was “+”. For the same compound, the “Bakterienwachstum nach 24 h Inkubation” value ([1]; 0,007% BBG + Octenidin 0,003%) was “-”, the “Bakterienwachstum nach 24 h Inkubation” value ([1]; 0,007% BBG + Octenidin 0,005%) was “-” and the “Bakterienwachstum nach 24 h Inkubation” value ([1]; 0,007% BBG + Octenidin 0,007%) was “-”. The “Bakterienwachstum nach 24 h Inkubation” value ([1]; 0,007% BBG + Octenidin 0,009%) was “-”, the “Bakterienwachstum nach 24 h Inkubation” value ([1]; 0,007% BBG, Octenidin 0%) was “+” and the “Bakterienwachstum nach 24 h Inkubation” value ([1]; 0,015% BBG + Octenidin 0,01%) was “-”. The “Bakterienwachstum nach 24 h Inkubation” value ([1]; 0,015% BBG + Octenidin 0,002%) was “+”, the “Bakterienwachstum nach 24 h Inkubation” value ([1]; 0,015% BBG + Octenidin 0,003%) was “+” and the “Bakterienwachstum nach 24 h Inkubation” value ([1]; 0,015% BBG + Octenidin 0,005%) was “+”. For the same compound, the “Bakterienwachstum nach 24 h Inkubation” value ([1]; 0,015% BBG + Octenidin 0,007%) was “-”, the “Bakterienwachstum nach 24 h Inkubation” value ([1]; 0,015% BBG + Octenidin 0,009%) was “-” and the “Bakterienwachstum nach 24 h Inkubation” value ([1]; 0,015% BBG, Octenidin 0%) was “+”. The “Bakterienwachstum nach 24 h Inkubation” value ([1]; 0,030% BBG + Octenidin 0,01%) was “+”, the “Bakterienwachstum nach 24 h Inkubation” value ([1]; 0,030% BBG + Octenidin 0,002%) was “+” and the “Bakterienwachstum nach 24 h Inkubation” value ([1]; 0,030% BBG + Octenidin 0,003%) was “+”. For the same compound, the “Bakterienwachstum nach 24 h Inkubation” value ([1]; 0,030% BBG + Octenidin 0,005%) was “+”, the “Bakterienwachstum nach 24 h Inkubation” value ([1]; 0,030% BBG + Octenidin 0,007%) was “+” and the “Bakterienwachstum nach 24 h Inkubation” value ([1]; 0,030% BBG + Octenidin 0,009%) was “+”. For the same compound, the “Bakterienwachstum nach 24 h Inkubation” value ([1]; 0,030% BBG, Octenidin 0%) was “+”.
